Reference: US9550739B2, “Molecules having certain pesticidal utilities, and intermediates, compositions, and processes related thereto” (priority 2014, dated 2017)

Key:
Format in all cases: in vivo
[1] = tested on: Cabbage Looper (Trichoplusia ni, TRIPNI) ("CL"); assay: Bioassays on Cabbage Looper (CL), 128-well diet tray assay; settings: Trichoplusia ni, 168 h, read-out: CL % Control (or Mortality) rating
Protocol: (§1) Certain molecules disclosed in this document were tested against BAW and CEW using procedures described in the following examples. In the reporting of the results, the “BAW & CL Rating Table” was used (See Table Section).
Bioassays on CL were conducted using a 128-well diet tray assay. one to five second instar CL larvae were placed in each well (3 mL) of the diet tray that had been previously filled with 1 mL of artificial diet to which 50 μg/cm^2 of the test compound (dissolved in 50 μL of 90:10 acetone-water mixture) had been applied (to each of eight wells) and then allowed to dry. Trays were covered with a clear self-adhesive cover and held at 25° C., 14:10 light-dark for five to seven days. Percent mortality was recorded for the larvae in each well; activity in the eight wells was then averaged. The results are indicated in the table entitled “Table ABC: Biological Results” (See Table Section).

[2] = tested on: Yellow Fever Mosquito (Aedes aegypti, AEDSAE) ("YFM"); settings: about 1 day-old larvae, 4000 ppm master solution diluted, 3 days, room temperature
Protocol: Certain molecules disclosed in this document were tested against YFM using procedures described in the following paragraph. In the reporting of the results, the “YFM Rating Table” was used (See Table Section).
Master plates containing 400 μg of a molecule dissolved in 100 μL of dimethyl sulfoxide (DMSO) (equivalent to a 4000 ppm solution) are used. A master plate of assembled molecules contains 15 μL per well. To this plate, 135 μL of a 90:10 water:acetone mixture is added to each well. A robot (Biomek® NXP Laboratory Automation Workstation) is programmed to dispense 15 μL aspirations from the master plate into an empty 96-well shallow plate (“daughter” plate). There are 6 reps (“daughter” plates) created per master. The created daughter plates are then immediately infested with YFM larvae.
The day before plates are to be treated, mosquito eggs are placed in Millipore water containing liver powder to begin hatching (4 g. into 400 mL). After the daughter plates are created using the robot, they are infested with 220 μL of the liver powder/larval mosquito mixture (about 1 day-old larvae). After plates are infested with mosquito larvae, a non-evaporative lid is used to cover the plate to reduce drying. Plates are held at room temperature for 3 days prior to grading. After 3 days, each well is observed and scored based on mortality.

[3] = tested on: Beet Armyworm (Spodoptera exigua, LAPHEG) ("BAW"); assay: Bioassays on Beet Armyworm (BAW), 128-well diet tray assay; settings: Spodoptera exigua, 168 h; second instar BAW larvae, 50 μg/cm^2 on artificial diet, five to seven days, 25° C.; read-out: BAW % Control (or Mortality) rating
Protocol: as §1
Bioassays on BAW were conducted using a 128-well diet tray assay. one to five second instar BAW larvae were placed in each well (3 mL) of the diet tray that had been previously filled with 1 mL of artificial diet to which 50 μg/cm^2 of the test compound (dissolved in 50 μL of 90:10 acetone-water mixture) had been applied (to each of eight wells) and then allowed to dry. Trays were covered with a clear self-adhesive cover and held at 25° C., 14:10 light-dark for five to seven days. Percent mortality was recorded for the larvae in each well; activity in the eight wells was then averaged. The results are indicated in the table entitled “Table ABC: Biological Results” (See Table Section).

Structure (SMILES)	mortality at 50 µg/cm2 [1] [%]	YFM % Control (or Mortality) rating [2]	mortality at 50 µg/cm2 [3] [%]
Cc1cccc(C)c1-c1cccc(C(=O)Nc2ccc(-c3ncn(-c4ccc(OC(F)(F)C(F)(F)F)cc4)n3)cc2)c1 [F31, 2′,6′-Dimethyl-N-(4-(1-(4-(perfluoroethoxy)phenyl)-1H-1,2,4-triazol-3-yl)phenyl)-[1,1′-biphenyl]-3-carboxamide]	50 to 100	D (No activity noticed in this bioassay)	50 to 100
COc1ccc(C(=O)Nc2ccc(-c3ncn(-c4ccc(OC(F)(F)F)cc4)n3)cc2)cc1-c1ccccc1 [F37, 6-Methoxy-N-(4-(1-(4-(trifluoromethoxy)phenyl)-1H-1,2,4-triazol-3-yl)phenyl)-[1,1′-biphenyl]-3-carboxamide]	50 to 100	A (80-100)	50 to 100
COc1ccccc1-c1cc(C(=O)N(C(C)=O)c2ccc(-c3ncn(-c4ccc(OC(F)(F)F)cc4)n3)cc2)ccc1F [F67, N-acetyl-6-fluoro-2′-methoxy-N-(4-(1-(4-(trifluoromethoxy)phenyl)-1H-1,2,4-triazol-3-yl)phenyl)-[1,1′-biphenyl]-3-carboxamide]	50 to 100	A (80-100)	50 to 100
COc1ccccc1-c1cc(C(=O)Nc2ccc(-c3ncn(-c4ccc(C(F)(F)F)cc4)n3)cc2)ccc1F [F20, 6-fluoro-2′-methoxy-N-(4-(1-(4-(trifluoromethyl)phenyl)-1H-1,2,4-triazol-3-yl)phenyl)-[1,1′-biphenyl]-3-carboxamide]	50 to 100	A (80-100)	50 to 100
Cc1ccccc1-c1cccc(C(=O)Nc2ccc(-c3ncn(-c4ccc(OC(F)(F)C(F)(F)F)cc4)n3)cc2)c1 [F35, 2′-Methyl-N-(4-(1-(4-(perfluoroethoxy)phenyl)-1H-1,2,4-triazol-3-yl)phenyl)-[1,1′-biphenyl]-3-carboxamide]	50 to 100	D (No activity noticed in this bioassay)	50 to 100
O=C(Nc1ccc(-c2ncn(-c3ccc(OC(F)(F)F)cc3)n2)cc1)c1cccc(-c2ccc(Cl)cc2Cl)n1 [F18, 6-(2,4-Dichlorophenyl)-N-(4-(1-(4-(trifluoromethoxy)phenyl)-1H-1,2,4-triazol-3-yl)phenyl)picolinamide]	0	D (No activity noticed in this bioassay)	0
O=C(Nc1ccc(-c2ncn(-c3ccc(OC(F)(F)C(F)(F)F)cc3)n2)cc1)c1cc(Cl)cc(-c2ccccc2)c1 [F6, 5-Chloro-N-(4-(1-(4-(perfluoroethoxy)phenyl)-1H-1,2,4-triazol-3-yl)phenyl)-[1,1′-biphenyl]-3-carboxamide]	0	D (No activity noticed in this bioassay)	0
COc1ccccc1-c1cccc(C(=O)N(C)c2ccc(-c3ncn(-c4ccc(OC(F)(F)F)cc4)n3)cc2)c1 [F19, 2′-methoxy-N-methyl-N-(4-(1-(4-(trifluoromethoxy)phenyl)-1H-1,2,4-triazol-3-yl)phenyl)-[1,1′-biphenyl]-3-carboxamide]	50 to 100	A (80-100)	50 to 100
O=C(Nc1ccc(-c2ncn(-c3ccc(OC(F)(F)F)cc3)n2)cc1)c1ccc(F)c(-c2ccccc2F)c1 [F28, 2′,6-Difluoro-N-(4-(1-(4-(trifluoromethoxy)phenyl)-1H-1,2,4-triazol-3-yl)phenyl)-[1,1′-biphenyl]-3-carboxamide]	50 to 100	A (80-100)	50 to 100
COc1ccc(C(=O)Nc2ccc(-c3ncn(-c4ccc(C(F)(F)F)cc4)n3)cc2)cc1-c1ccccc1 [F61, 6-Methoxy-N-(4-(1-(4-(trifluoromethyl)phenyl)-1H-1,2,4-triazol-3-yl)phenyl)-[1,1′-biphenyl]-3-carboxamide]	50 to 100	A (80-100)	50 to 100
